Data set [1] in a line: Example 1: pharmacokinetics of Compound 1 alone and with RTV in healthy subjects. It is filed as in vivo, human. The source says:
The study was an open-label, fixed-sequence, crossover, pharmacokinetic study with 12 subjects. The subjects were healthy males and non-pregnant, nonlactating females between 18 and 45 years of age, inclusive. The duration of the study was 20 days, with Period 1 of Days 1 to 10 and Period 2 of days 11 to 20. Follow-up contact was on day 27.

Data set [2] in a line: Example 3: pharmacokinetics of Compound 1 and RTV at a range of RTV doses. The conditions noted are these: RTV in plasma, mean (CV %); for AUC / Cmax / half-life: both, human; for AUC: AUCtau.
The conditions of data set [3]: both, human, in vivo.
In another data set the test system is CYP3A (hepatic). Kind of data set: Example 3: IV midazolam probe for CYP3A activity at a range of RTV doses. The conditions noted are these: human, plasma, iv, probe midazolam; for AUC(0-inf): AUCinf (mean); for clearance: CL (mean); for half-life: Half-life (mean). The procedure: (§1) The effects of a range of RTV doses (20, 50, 100, and 200 mg once daily) on hepatic cytochrome P450 3A (CYP3A) activity were also evaluated using a CYP3A substrate.
(§2) For MDZ: AUC0-last, AUCinf, % AUCexp, Clast, Tlast, λ, T1/2, CL and Vz.
(§3) The population mean slope was estimated along with a corresponding 90% CI. This study was performed in compliance with the guidelines of Good Clinical Practices (GCPs).

In data set [4] the test system is hepatic cytochrome P450 3A (CYP3A) activity. Described as above. The protocol: as §1, §2, §3
Data set [5] can be described thus: Example 5: drug-drug interaction of zidovudine and Compound 1/r. The source says:
(§4) Zidovudine is a NRTI used in HIV patients.
(§5) PK parameters were estimated using WinNonlin™ 5.0.1 (Pharsight Corporation, Mountain View, Calif., USA).

Data set [6] in a line: Example 5: safety of zidovudine and Compound 1/r. The data set is classed as in vivo, human.
Text: as §4, §5

Where [7] appears, read: plasma, oral, Compound 1 125 mg + 20 mg RTV QD.
Setting [8] is: plasma, oral, Compound 1 125 mg + 50 mg RTV QD.
Setting [9] is: plasma, oral, Compound 1 125 mg + 200 mg RTV QD.

The values that follow come from patent US20070219243A1, “Method for improving the pharmacokinetics of HIV integrase inhibitors” (priority 2005, published 2007).

In general, half-life refers to the time needed for the level to fall by half in the phase considered. As a reminder, the AUC is concentration integrated over time. As a reminder, the Cmax is the maximum level reached in the sampled fluid or tissue. The term clearance denotes the rate of elimination divided by the concentration. Low readings indicate a low capacity for elimination, high ones a high capacity for elimination.

Turning to `CC(C)c1nc(CN(C)C(=O)N[C@H](C(=O)N[C@@H](Cc2ccccc2)C[C@H](O)[C@H](Cc2ccccc2)NC(=O)OCc2cncs2)C(C)C)cs1` [Ritonavir, (2S,3S,5S)-5-(N-(N-((N-Methyl-N-((2-isopropyl-4-thiazolyl)methyl)amino)-carbonyl)-L-valinyl)amino)-2-(N-((5-thiazolyl)methoxycarbonyl)amino)-1,6-diphenyl-3-hydroxyhexane, reference compound], the half-life was 5.1 h in data set [1] (both sexes, human, plasma, oral, 100 mg, ritonavir in plasma, Day 11, single dose RTV 100 mg with Compound 1, median); 4.74 h in data set [2] (setting [7]); 6.54 h in data set [2] (setting [8]); 6.34 h in data set [2] (plasma, oral, Compound 1 125 mg + 100 mg RTV QD); 5.71 h in data set [2] (setting [9]). For the same molecule, the AUC(0-inf) in data set [1] (both sexes, human, plasma, oral, 100 mg, read-out: AUC (AUCinf)) is 4980 ng·h/mL. Besides, the AUC is 9400 ng·h/mL in data set [1] (both sexes, human, plasma, oral, ritonavir in plasma, Day 20, RTV 100 mg + Compound 1 100 mg twice daily, mean, read-out: AUC (AUCtau)); 6550 ng·h/mL in data set [2] (in vivo, Compound 1 125 mg + 100 mg RTV QD); 135 ng·h/mL in data set [2] (setting [7]); 1120 ng·h/mL in data set [2] (setting [8]); 16000 ng·h/mL in data set [2] (setting [9]). In addition, the Ctau was 219.8 ng/mL in data set [1] (ritonavir in plasma, Day 11, single dose RTV 100 mg with Compound 1, mean); 544.8 ng/mL in data set [1] (ritonavir in plasma, Day 20, RTV 100 mg + Compound 1 100 mg twice daily, mean); 0.718 (98.8) ng/ml in data set [2] (Compound 1 125 mg + 20 mg RTV QD); 11.6 (66.2) ng/ml in data set [2] (Compound 1 125 mg + 50 mg RTV QD); 53.8 (41.6) ng/ml in data set [2] (Compound 1 125 mg + 100 mg RTV QD); 78.5 (36.7) ng/ml in data set [2] (Compound 1 125 mg + 200 mg RTV QD). For the same molecule, the Cmax in data set [2] (setting [7]) was 19.5 ng/mL; in data set [2] (setting [8]), 130 ng/mL; in data set [2] (setting [9]), 2460 ng/mL. Further, the “Dose proportionality of RTV exposures” value in data set [3] is given as “RTV exposures not dose-proportional, very low exposures at 20 mg with BLQ concentrations (<0.5 ng/ml) by 16 hr in some subjects”.

As to `Cc1ncc2n1-c1ccc(Cl)cc1C(c1ccccc1F)=NC2` [MDZ, midazolam], the AUC(0-inf) with CYP3A (hepatic) (1 mg, MDZ 1 mg IV alone, Day 1) was found to be 31 ng·h/mL; in the data set on CYP3A (hepatic) (MDZ 1 mg IV, +20 mg RTV QD (with Compound 1 125 mg)), 101 ng·h/mL; with CYP3A (hepatic) (MDZ 1 mg IV, +50 mg RTV QD (with Compound 1 125 mg)), 145 ng·h/mL; with CYP3A (hepatic) (MDZ 1 mg IV, +100 mg RTV QD (with Compound 1 125 mg)) it was 219 ng·h/mL; with CYP3A (hepatic) (MDZ 1 mg IV, +200 mg RTV QD (with Compound 1 125 mg)), 146 ng·h/mL. Besides, the clearance was 7.45 mL/min/kg with CYP3A (hepatic) (1 mg, MDZ 1 mg IV alone); 2.38 mL/min/kg in the data set with CYP3A (hepatic) (MDZ 1 mg IV, +20 mg RTV); 1.5 mL/min/kg with CYP3A (hepatic) (MDZ 1 mg IV, +50 mg RTV); 1.2 mL/min/kg with CYP3A (hepatic) (MDZ 1 mg IV, +100 mg RTV); 1.45 mL/min/kg in the data set with CYP3A (hepatic) (MDZ 1 mg IV, +200 mg RTV). The half-life was 3.97 h in the data set on CYP3A (hepatic) (1 mg, MDZ 1 mg IV alone); 7.83 h in the data set on CYP3A (hepatic) (MDZ 1 mg IV, +20 mg RTV); 14.4 h with CYP3A (hepatic) (MDZ 1 mg IV, +50 mg RTV); 22.4 h in the data set on CYP3A (hepatic) (MDZ 1 mg IV, +100 mg RTV); 15.2 h in the data set on CYP3A (hepatic) (MDZ 1 mg IV, +200 mg RTV). For the same molecule, the “Clast (mean)” value was 0.20 ng/mL in data set [4] (MDZ 1 mg IV alone); 1.53 ng/mL in data set [4] (MDZ 1 mg IV, +20 mg RTV); 2.51 ng/mL in data set [4] (MDZ 1 mg IV, +50 mg RTV); 3.34 ng/mL in data set [4] (MDZ 1 mg IV, +100 mg RTV); 2.58 ng/mL in data set [4] (MDZ 1 mg IV, +200 mg RTV).

On to `Cc1cn([C@H]2C[C@H](N=[N+]=[N-])[C@@H](CO)O2)c(=O)[nH]c1=O` [ZDV, zidovudine], for which the “AUCtau, Cmax, Ctau (Compound 1 only) 90% CI of GMR (co-administration: alone)” value in data set [5] (Compound 1/r 200/100 mg QD + ZDV 300 mg BID, with a meal, bounds 70% to 143%) is “within predefined PK equivalence bounds”. Moreover, in data set [5] (in vivo), the Pharmacokinetic drug-drug interaction entry is reported as “no clinically relevant pharmacokinetic drug-drug interaction”. Also, the Tolerability entry in data set [6] (Compound 1/r 200/100 mg QD and ZDV 300 mg BID, alone and in combination) is recorded as “generally well tolerated”. Moreover, the Safety of co-administration entry in data set [6] (zidovudine co-administered with Compound 1/r) is “safe and well tolerated”.
